Laboratory results as given in patent publication US10221144B2, “Antibacterial compounds having broad spectrum of activity” (priority 2014, dated 2019).
Where two headings read alike, the source gives them in different places.

How the values were obtained:
Type in all cases: biochemical
E. coli DNA gyrase = target: T1, E. coli DNA gyrase (Escherichia coli, UniProt P0AES4+P0AES6); test: DNA gyrase supercoiling assay (E. coli); details: for % inhibition DNA gyrase / inhibition at 100 µM: conc. 100 μM; for % inhibition DNA gyrase / inhibition at 200 µM / inhibition at 100 µM: n/a = not active; for inhibition at 200 µM: conc. 200 μM
T1 construct: purchased Inspiralis, UK
T1 sequence (P0AES4 whole entry, one chain of several): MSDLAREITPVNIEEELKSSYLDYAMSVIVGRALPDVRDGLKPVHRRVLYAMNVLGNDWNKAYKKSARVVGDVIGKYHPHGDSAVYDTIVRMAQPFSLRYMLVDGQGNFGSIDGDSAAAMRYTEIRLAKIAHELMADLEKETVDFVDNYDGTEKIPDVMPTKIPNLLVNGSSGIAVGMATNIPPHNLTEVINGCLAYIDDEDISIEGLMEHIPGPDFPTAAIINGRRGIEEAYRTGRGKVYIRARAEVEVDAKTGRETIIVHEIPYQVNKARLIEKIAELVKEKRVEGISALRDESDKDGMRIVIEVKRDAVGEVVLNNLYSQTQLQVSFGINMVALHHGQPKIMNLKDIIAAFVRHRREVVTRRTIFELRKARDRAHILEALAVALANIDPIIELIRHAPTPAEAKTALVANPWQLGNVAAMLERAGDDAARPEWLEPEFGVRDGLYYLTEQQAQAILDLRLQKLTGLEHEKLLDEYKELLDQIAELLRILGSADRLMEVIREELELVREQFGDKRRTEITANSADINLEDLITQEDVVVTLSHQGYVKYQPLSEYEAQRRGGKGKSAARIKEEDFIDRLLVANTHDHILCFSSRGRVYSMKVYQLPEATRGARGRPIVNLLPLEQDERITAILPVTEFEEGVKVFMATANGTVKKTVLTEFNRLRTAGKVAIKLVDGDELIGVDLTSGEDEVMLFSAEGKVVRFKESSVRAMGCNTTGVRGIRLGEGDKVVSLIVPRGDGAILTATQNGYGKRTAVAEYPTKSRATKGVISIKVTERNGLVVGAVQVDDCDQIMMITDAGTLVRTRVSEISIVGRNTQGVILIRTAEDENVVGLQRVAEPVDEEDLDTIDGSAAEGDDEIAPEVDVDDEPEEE
Experimental: (§1) The above compounds were tested for the inhibition of the enzyme DNA gyrase in a gyrase supercoiling assay and for the inhibition of the enzyme topoisomerase IV in a decatenation assay, in both Gram positive and Gram negative bacteria, according to the following methods.
(§2) Both the assays were carried out according to a set-up method modified from the article to Blanche F, et al. “Differential Behaviors of Staphylococcus aureus and Escherichia coli Type II DNA Topoisomerases”, Antimicrob. Agents Chemother., 1996, Vol. 40, No. 12 p. 2714-2720.
(§3) The compounds were screened at single concentration (200, 100 or 50 μM), in duplicate.
(§4) Reagents from S. aureus and E. coli Gyrase Supercoiling Assay kits (Inspiralis, UK) were used. A master mix with a total volume sufficient for the number of reactions to perform was prepared with the following reagents: 5× assay buffer, relaxed pBR322 substrate (0.5 μg/reaction), RNase-DNase free water. Aliquotes of this mix were dispensed in each tube, then 10× compound stock solutions or vehicle control (DMSO), were added to each reaction tube.
(§5) Reaction was started with E. Coli (2 U/reaction) or S. aureus (1 U/reaction) gyrase enzyme addition.
(§6) A sample added with an equal volume of dilution buffer was used as negative control (without enzyme).
(§7) The reaction tubes were gentle vortexed and incubated 30 minutes at 37° C. Each reaction was stopped by adding 30 μl of Stop Buffer and 30 μl chloroform/isoamyl alcohol (24/1), briefly vortexed for 5-10 seconds and centrifuged at 20000×g for 2 minutes. Samples were loaded onto 1% agarose gel and subjected to electrophoresis for 1 hour at 80V constant voltage in TAE (40 mM Tris-acetate, 2 mM EDTA).
(§8) Data acquisition and analysis. Treatment of relaxed pBR322 with DNA gyrase converted the relaxed topoisomers (DNAs of different linking number) to the supercoiled form of the plasmid, which migrates faster on an agarose gel. An upper band might also be visible, which consists of open-circular (nicked) DNA which is present in the relaxed substrate but co-migrates with some of the relaxed topoisomers.
(§9) Bands were visualized by ethidium bromide staining (dilution 1:20000) for 30 minutes followed by destaining in distilled water for 10 minutes.
(§10) In order to evaluate the compounds activity on the enzyme, the bands of supercoiled DNAs in the gel were photographed by a digital imaging system ImageQuant LAS 4000 (GE Healthcare) according to manufacturer's instructions.
(§11) The fluorescent intensity of each band was analyzed by ImageQuant TL software and it was expressed as volume (volume of the uncalibrated quantity of material in the image feature after subtraction of the background intensity by using rolling ball method).
(§12) Each band intensity was compared, as percentage, to vehicle sample band intensity, which served as positive control, on the same gel.
(§13) Inhibitory activity was expressed as percent of inhibition versus the positive control.
(§14) The supercoiled or decatenated DNA bands obtained as described in Example 1 were analysed as follows.
(§15) Bands were analyzed by gel documentation equipment (Syngene, Cambridge, UK) and quantitated using Syngene Gene Tools software. Raw gel data (fluorescent band volumes) collected from Syngene, GeneTools gel analysis software were converted to a percentage of the 100% control (the fully supercoiled or decatenated DNA band). […] The IC50 data were calculated by using the global curve fit non-linear regression tool by selecting the Single, 2 Parameter fit function from the Exponential Decay equation category.

S. aureus DNA gyrase = target: T2, S. aureus DNA gyrase (Staphylococcus aureus, UniProt P0A0K8+P20831); test: DNA gyrase supercoiling assay (S. aureus); details: for % inhibition DNA gyrase / inhibition at 100 µM: conc. 100 μM; for % inhibition DNA gyrase / inhibition at 200 µM / inhibition at 100 µM: n/a = not active; for inhibition at 200 µM: conc. 200 μM
T2 construct: purchased Inspiralis, UK
T2 sequence (P0A0K8 whole entry): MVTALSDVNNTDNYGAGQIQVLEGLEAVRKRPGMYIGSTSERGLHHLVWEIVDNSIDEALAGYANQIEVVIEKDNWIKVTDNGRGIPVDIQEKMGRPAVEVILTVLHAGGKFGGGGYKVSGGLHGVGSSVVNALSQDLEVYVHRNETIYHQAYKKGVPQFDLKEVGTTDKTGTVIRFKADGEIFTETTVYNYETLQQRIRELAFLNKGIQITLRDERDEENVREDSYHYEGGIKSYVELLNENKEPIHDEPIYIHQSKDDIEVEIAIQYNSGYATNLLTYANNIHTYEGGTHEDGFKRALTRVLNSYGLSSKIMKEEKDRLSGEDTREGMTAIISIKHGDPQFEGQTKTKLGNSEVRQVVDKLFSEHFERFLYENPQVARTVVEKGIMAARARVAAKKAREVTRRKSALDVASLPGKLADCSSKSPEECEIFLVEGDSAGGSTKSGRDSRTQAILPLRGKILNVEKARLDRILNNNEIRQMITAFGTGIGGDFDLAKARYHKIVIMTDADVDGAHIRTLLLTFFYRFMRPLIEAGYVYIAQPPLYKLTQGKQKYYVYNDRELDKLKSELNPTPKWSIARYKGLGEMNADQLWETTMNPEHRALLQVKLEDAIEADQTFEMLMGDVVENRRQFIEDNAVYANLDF
T2 sequence (P20831 whole entry): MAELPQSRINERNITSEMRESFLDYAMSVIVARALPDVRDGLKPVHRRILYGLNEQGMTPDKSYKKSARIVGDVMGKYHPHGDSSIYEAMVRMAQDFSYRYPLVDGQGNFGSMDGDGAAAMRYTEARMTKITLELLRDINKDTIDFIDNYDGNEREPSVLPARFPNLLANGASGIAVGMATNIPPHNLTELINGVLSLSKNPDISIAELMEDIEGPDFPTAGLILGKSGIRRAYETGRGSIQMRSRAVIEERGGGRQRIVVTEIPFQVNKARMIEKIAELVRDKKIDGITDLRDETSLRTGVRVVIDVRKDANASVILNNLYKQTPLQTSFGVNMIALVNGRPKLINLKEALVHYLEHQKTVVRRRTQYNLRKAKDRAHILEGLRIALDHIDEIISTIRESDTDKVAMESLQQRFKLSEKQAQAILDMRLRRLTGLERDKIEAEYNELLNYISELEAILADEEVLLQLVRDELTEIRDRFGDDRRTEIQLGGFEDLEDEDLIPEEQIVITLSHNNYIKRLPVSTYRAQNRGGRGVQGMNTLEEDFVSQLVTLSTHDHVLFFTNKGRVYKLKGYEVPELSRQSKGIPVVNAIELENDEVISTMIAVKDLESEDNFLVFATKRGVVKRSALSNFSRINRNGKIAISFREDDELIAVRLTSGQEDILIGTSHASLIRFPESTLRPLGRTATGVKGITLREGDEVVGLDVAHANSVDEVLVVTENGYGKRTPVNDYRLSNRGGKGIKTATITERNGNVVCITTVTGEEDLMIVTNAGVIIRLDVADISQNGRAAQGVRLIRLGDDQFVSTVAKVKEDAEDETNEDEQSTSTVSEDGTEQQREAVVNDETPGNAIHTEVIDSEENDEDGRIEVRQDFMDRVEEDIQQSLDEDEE
Experimental: as §1, §2, §3, §4, §5, §6, §7, §8, §9, §10, §11, §12, §13, §14, §15

E. coli Topoisomerase IV = target: T3, E. coli Topoisomerase IV (Escherichia coli, UniProt P0AFI2+P20083); test: Topoisomerase IV decatenation assay (E. coli); details: for % inhibition Topo IV / inhibition at 100 µM: conc. 100 μM; for % inhibition Topo IV / inhibition at 200 µM / inhibition at 100 µM: n/a = not active; for inhibition at 200 µM: conc. 200 μM; for inhibition at 200 µM / inhibition at 100 µM: read-out: % inhibition Topo IV
T3 construct: purchased Inspiralis, UK
T3 sequence (P20083 whole entry): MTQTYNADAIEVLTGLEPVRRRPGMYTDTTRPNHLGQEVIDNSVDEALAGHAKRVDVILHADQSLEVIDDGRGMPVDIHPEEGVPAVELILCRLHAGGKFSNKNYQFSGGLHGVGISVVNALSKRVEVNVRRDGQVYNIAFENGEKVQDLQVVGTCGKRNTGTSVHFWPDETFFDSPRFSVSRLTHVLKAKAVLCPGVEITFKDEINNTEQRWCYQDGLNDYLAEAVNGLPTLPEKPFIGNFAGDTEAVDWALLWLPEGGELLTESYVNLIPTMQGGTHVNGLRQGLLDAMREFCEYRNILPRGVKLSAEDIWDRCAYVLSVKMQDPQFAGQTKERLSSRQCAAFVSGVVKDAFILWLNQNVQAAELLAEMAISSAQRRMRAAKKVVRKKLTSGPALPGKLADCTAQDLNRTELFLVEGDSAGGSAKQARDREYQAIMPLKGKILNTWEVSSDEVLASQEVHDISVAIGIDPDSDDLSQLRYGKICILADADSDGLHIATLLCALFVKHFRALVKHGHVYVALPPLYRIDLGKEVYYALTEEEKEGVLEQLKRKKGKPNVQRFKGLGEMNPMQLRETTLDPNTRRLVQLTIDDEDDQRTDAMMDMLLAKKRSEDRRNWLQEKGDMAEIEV
T3 sequence (P0AFI2 whole entry): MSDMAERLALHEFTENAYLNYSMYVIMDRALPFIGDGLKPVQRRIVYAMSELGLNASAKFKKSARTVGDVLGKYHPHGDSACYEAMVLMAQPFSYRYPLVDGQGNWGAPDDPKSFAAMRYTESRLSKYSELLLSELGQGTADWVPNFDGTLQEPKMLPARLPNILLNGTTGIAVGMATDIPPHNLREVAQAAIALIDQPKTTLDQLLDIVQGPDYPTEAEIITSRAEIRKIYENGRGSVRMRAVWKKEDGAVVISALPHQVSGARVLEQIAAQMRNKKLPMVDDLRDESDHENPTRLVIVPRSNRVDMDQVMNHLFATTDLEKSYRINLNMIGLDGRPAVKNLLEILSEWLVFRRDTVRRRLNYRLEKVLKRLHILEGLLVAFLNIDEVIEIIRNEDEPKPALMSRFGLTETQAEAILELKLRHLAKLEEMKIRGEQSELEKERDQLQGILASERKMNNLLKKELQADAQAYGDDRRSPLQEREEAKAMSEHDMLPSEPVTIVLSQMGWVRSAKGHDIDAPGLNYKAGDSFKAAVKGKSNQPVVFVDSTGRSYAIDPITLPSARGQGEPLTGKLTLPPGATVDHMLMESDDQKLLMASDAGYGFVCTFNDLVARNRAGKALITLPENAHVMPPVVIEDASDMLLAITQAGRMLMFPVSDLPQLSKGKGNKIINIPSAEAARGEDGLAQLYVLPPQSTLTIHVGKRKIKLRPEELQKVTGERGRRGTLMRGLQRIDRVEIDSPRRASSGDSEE
Experimental: as §1, §2, §3
S. aureus and E. coli Topoisomerase IV decatenation kits (Inspiralis, UK) were used. A master mix with a total volume sufficient for the number of reactions to perform was prepared with the following reagents: 5× assay buffer (50 mM HEPES-KOH (pH 7.6), 100 mM potassium glutamate, 10 mM magnesium acetate, 10 mM DTT, 1 mM ATP, 50 μg/ml albumin), kDNA substrate (200 ng/reaction), RNase-DNase free water. Aliquots of this mix were dispensed in each tube, then 10× compound stock solutions or vehicle control (DMSO), were added in each reaction tube.
Reaction was started with Topoisomerase IV enzyme (0.5 U/reaction) addition.
as §6
The reaction tubes were gentle vortexed and incubated 30 minutes at 37° C. Each reaction was stopped by adding 30 μl of Stop Buffer and 30 μl of chloroform/isoamyl alcohol (24/1), briefly vortexed for 5-10 seconds and centrifuged at 20000×g for 2 minutes. Samples taken from the upper phase were loaded into 1% agarose gel and subjected to electrophoresis for 1 hour at 80V constant voltage in TAE (40 mM Tris-acetate, 2 mM EDTA).
Data acquisition and analysis. Due to the high molecular mass, kDNA could not enter an agarose gel under normal electrophoresis conditions, but remained in the wells. In the presence of Topo IV topoisomerase mini-circles (2.5 Kb) were released from kDNA by decatenation and were quickly and easily resolved in the gel at relatively high voltages.
Bands were visualized by ethidium bromide staining (dil 1:20000) for 30 minutes followed by destaining in distilled water for 10 minutes.
For single concentration screening assay, in order to evaluate the compounds activity on the enzymes, the bands of decatenated DNAs in the gel were photographed by a digital imaging system ImageQuant LAS 4000 (GE Healthcare) according to manufacturer's instructions.
as §11, §12, §13, §14, §15

[1] = E. coli, concentration-response curve, eight half-log concentrations 0.1 to 300 μM, read-out: IC50 DNA gyrase
[2] = S. aureus, concentration-response curve, eight half-log concentrations 0.1 to 300 μM, read-out: IC50 DNA gyrase
[3] = E. coli, concentration-response curve, eight half-log concentrations 0.1 to 300 μM, read-out: IC50 Topo IV

For 1,3-dichloroisoquinoline [Compound 66], the “% inhibition DNA gyrase” value (E. coli DNA gyrase; E. coli) was 100%, the IC50 (E. coli DNA gyrase; [1]) was 2.3 µM and the “% inhibition DNA gyrase” value (S. aureus DNA gyrase; S. aureus) was 87%. The IC50 (S. aureus DNA gyrase; [2]) was 12.1 µM, the “% inhibition Topo IV” value (E. coli Topoisomerase IV; E. coli) was 58% and the IC50 (E. coli Topoisomerase IV; [3]) was 3.2 µM.

With 4-chloro-2H-chromen-2-one [Compound 63] the “% inhibition DNA gyrase” value (E. coli DNA gyrase; E. coli) was 98% and the “% inhibition Topo IV” value (E. coli Topoisomerase IV; E. coli) was 51%.

With “5-chloro-1,6-naphthyridine [Compound 65]” the “% inhibition DNA gyrase” value (E. coli DNA gyrase; E. coli) was 94%, the IC50 (E. coli DNA gyrase; [1]) was 40.6 µM and the “% inhibition DNA gyrase” value (S. aureus DNA gyrase; S. aureus) was 80%. For the same compound, the IC50 (S. aureus DNA gyrase; [2]) was 26.8 µM, the “% inhibition Topo IV” value (E. coli Topoisomerase IV; E. coli) was 80% and the IC50 (E. coli Topoisomerase IV; [3]) was 29.3 µM.

For O=c1cc(NC2CCN(CCCc3cccc4ocnc34)CC2)c2ccccc2o1 [Compound 27, 4-({1-[3-(1,3-benzoxazol-4-yl)propyl]piperidin-4-yl}amino)-2H-chromen-2-one], the inhibition at 200 µM (E. coli DNA gyrase; E. coli) was 61% and the inhibition at 200 µM (E. coli Topoisomerase IV; E. coli) was 53%.

O=c1cc(NC2CCN(CCCc3nccc4ccccc34)CC2)c2ccccc2o1 [Compound 29, 4-({1-[3-(isoquinolin-1-yl)propyl]piperidin-4-yl}amino)-2H-chromen-2-one] was tested, and the IC50 (E. coli DNA gyrase) was 6 µM, the inhibition at 200 µM (E. coli DNA gyrase; E. coli) was 92% and the IC50 (S. aureus DNA gyrase) was 20 µM. It also gave an inhibition at 200 µM (S. aureus DNA gyrase; S. aureus) of 86%, an IC50 (E. coli Topoisomerase IV) of 10 µM and an inhibition at 200 µM (E. coli Topoisomerase IV; E. coli) of 100%.

With O=C1Cc2cccc(CCCN3CCC(Nc4cc(=O)oc5ccccc45)CC3)c2N1 [Compound 40, 7-(3-{4-[(2-oxo-2H-chromen-4-yl)amino]piperidin-1-yl}propyl)-1,3-dihydro-2H-indol-2-one] the inhibition at 200 µM (E. coli DNA gyrase; E. coli) was 54% and the inhibition at 200 µM (E. coli Topoisomerase IV; E. coli) was 78%.

Work on c1ccc2c(N3CCN(CCCNCc4cc5c(cn4)OCS5)CC3)nccc2c1 [Compound 46, 3-[4-(isoquinolin-1-yl)piperazin-1-yl]-N-([1,3]oxathiolo-[5,4-c]pyridin-6-ylmethyl)propan-1-amine] yielded an inhibition at 200 µM (E. coli DNA gyrase; E. coli) of 57%, an inhibition at 200 µM (S. aureus DNA gyrase; S. aureus) of 100% and an inhibition at 200 µM (E. coli Topoisomerase IV; E. coli) of 94%.

Work on O=c1cc(NCCCN2CCN(c3nccc4ccc(Cl)cc34)CC2)c2ccccc2o1 [Compound 51, 4-({3-[4-(7-chloroisoquinolin-1-yl)piperazin-1-yl]propyl}amino)-2H-chromen-2-one] yielded an IC50 (E. coli DNA gyrase) of 0.9 µM, an inhibition at 100 µM (E. coli DNA gyrase; E. coli) of 100% and an IC50 (S. aureus DNA gyrase) of 4.5 µM. The inhibition at 100 µM (S. aureus DNA gyrase; S. aureus) was 91%, the IC50 (E. coli Topoisomerase IV) was 2.4 µM and the inhibition at 100 µM (E. coli Topoisomerase IV; E. coli) was 88%.

With O=c1cc(N[C@H]2C[C@H](N3CCN(c4nccc5ccccc45)CC3)C2)c2ccccc2o1 [Compound 55, trans-4-({3-[4-(isoquinolin-1-yl)piperazin-1-yl]cyclobutyl}amino)-2H-chromen-2-one] the IC50 (E. coli DNA gyrase) was 2.1 µM, the inhibition at 100 µM (E. coli DNA gyrase; E. coli) was 94% and the IC50 (S. aureus DNA gyrase) was 5.6 µM. It also gave an inhibition at 100 µM (S. aureus DNA gyrase; S. aureus) of 86%, an IC50 (E. coli Topoisomerase IV) of 2.6 µM and an inhibition at 100 µM (E. coli Topoisomerase IV; E. coli) of 95%.
